# Results taken from US9096591B2, “Tetracyclic compounds” (Medivation Technologies, Inc., priority 2007, dated 2015).
# Like-named read-outs stand apart in the source and are kept apart here.
# Assays:
# [1] = target: T1, human recombinant adrenergic α2A receptor (Homo sapiens, UniProt P08913); test: Adrenergic α2A radioligand binding ([3H]MK-912); design: Inhibition of ligand binding, Adren. alpha2A: concentration or dose not given beside the values; settings: percent inhibition of specific binding
# T1 construct: expressed in transfected cells; host or cells: insect Sf9 cells
# T1 sequence (P08913 1-465): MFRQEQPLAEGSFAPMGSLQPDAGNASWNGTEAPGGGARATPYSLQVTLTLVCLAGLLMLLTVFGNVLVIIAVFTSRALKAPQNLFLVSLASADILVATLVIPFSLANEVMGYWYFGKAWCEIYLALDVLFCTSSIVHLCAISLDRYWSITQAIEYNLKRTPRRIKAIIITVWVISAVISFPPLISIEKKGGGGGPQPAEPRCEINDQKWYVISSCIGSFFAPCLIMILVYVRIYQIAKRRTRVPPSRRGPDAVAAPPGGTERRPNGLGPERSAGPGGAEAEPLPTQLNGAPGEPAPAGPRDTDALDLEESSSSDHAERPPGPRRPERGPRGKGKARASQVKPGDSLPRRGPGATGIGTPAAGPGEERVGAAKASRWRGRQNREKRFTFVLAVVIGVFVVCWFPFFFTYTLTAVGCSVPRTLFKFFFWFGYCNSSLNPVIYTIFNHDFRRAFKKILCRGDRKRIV
# Outline: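 Membranes from Sf9 cells expressing the receptor were incubated with 1 nM [3H]MK-912 for 60 minutes at 25° C in 50 mM Tris-HCl pH 7.4, 12.5 mM MgCl2, 2 mM EDTA. 10 μM WB-4101 defined non-specific binding. Values are percent inhibition of specific bound radioactivity after filtration.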
# [2] = target: T2, human recombinant histamine H1 receptor (Homo sapiens, UniProt P35367); test: Histamine H1 radioligand binding ([3H]Pyrilamine)
# T2 construct: expressed in transfected cells; host or cells: CHO cells
# Outline: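 CHO-expressed receptor in modified Tris-HCl buffer (50 mM, pH 7.4; 2 mM MgCl2, 100 mM NaCl, 250 mM sucrose); bound ligand measured after filtration and washing.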
# [3] = target: T3, human recombinant serotonin (5-Hydroxytryptamine) 5-HT6 receptor (Homo sapiens, UniProt P50406); test: Serotonin 5-HT6 radioligand binding ([3H]LSD); design: Inhibition of ligand binding, Ser. 5-HT6: concentration or dose not given beside the values; settings: percent inhibition of specific binding
# T3 construct: expressed in transfected cells; host or cells: human HeLa cells
# From the text: Receptor proteins were filtered and washed, the filters were then counted to determine [3H]LSD specifically bound. […] Biochemical assay results are presented as the percent inhibition of specific binding in Table 6.
# [4] = target: T4, human recombinant serotonin (5-Hydroxytryptamine) 5-HT2A receptor (Homo sapiens, UniProt P28223); test: Serotonin 5-HT2A radioligand binding ([3H]Ketanserin); settings: percent inhibition of specific binding
# T4 construct: expressed in transfected cells; host or cells: CHO-K1 cells
# Protocol: Compounds of the invention were incubated with 0.5 nM [^3H]Ketanserin for 60 minutes at 25° C. Non-specific binding was estimated in the presence of 1 μM Mianserin. Receptor proteins were filtered and washed, the filters were then counted to determine [^3H]Ketanserin specifically bound. […] Biochemical assay results are presented as the percent inhibition of specific binding in Table 6.
# [5] = target: T5, human recombinant adrenergic α1D receptor (Homo sapiens, UniProt P25100); test: Adrenergic α1D radioligand binding ([3H]Prozosin); design: Inhibition of ligand binding, Adren. alpha1D: concentration or dose not given beside the values; settings: percent inhibition of specific binding
# T5 construct: expressed in transfected cells; host or cells: HEK-293 cells
# T5 sequence (P25100 1-572): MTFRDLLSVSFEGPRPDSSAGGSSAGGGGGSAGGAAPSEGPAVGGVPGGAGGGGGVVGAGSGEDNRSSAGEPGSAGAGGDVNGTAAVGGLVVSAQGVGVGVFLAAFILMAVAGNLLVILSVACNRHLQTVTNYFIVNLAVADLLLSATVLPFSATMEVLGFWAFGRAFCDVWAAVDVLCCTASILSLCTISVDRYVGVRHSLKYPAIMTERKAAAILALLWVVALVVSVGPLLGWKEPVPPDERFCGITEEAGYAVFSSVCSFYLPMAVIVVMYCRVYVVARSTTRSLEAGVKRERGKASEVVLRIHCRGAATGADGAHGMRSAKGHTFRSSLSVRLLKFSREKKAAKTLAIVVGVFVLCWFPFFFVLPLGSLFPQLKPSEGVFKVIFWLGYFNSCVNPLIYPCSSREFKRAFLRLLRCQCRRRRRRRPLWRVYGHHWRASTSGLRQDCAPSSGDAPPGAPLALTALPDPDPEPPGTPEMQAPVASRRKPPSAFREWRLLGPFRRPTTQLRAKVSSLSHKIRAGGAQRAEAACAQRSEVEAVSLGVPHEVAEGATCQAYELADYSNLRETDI
# Protocol: Compounds of invention were incubated with 0.6 nM [^3H]Prozosin for 60 minutes at 25° C. Non-specific binding was estimated in the presence of 10 μM phentolamine. Receptor proteins were filtered and washed, the filters were then counted to determine [^3H]Prozosin specifically bound. […] Biochemical assay results are presented as the percent inhibition of specific binding in Table 6.
# [6] = percent inhibition of specific binding, screened at 1 μM, read-out: Inhibition of ligand binding, Hist. H1
# [7] = read-out: Inhibition of ligand binding, Hist. H1
# T4 sequence (P28223 whole entry): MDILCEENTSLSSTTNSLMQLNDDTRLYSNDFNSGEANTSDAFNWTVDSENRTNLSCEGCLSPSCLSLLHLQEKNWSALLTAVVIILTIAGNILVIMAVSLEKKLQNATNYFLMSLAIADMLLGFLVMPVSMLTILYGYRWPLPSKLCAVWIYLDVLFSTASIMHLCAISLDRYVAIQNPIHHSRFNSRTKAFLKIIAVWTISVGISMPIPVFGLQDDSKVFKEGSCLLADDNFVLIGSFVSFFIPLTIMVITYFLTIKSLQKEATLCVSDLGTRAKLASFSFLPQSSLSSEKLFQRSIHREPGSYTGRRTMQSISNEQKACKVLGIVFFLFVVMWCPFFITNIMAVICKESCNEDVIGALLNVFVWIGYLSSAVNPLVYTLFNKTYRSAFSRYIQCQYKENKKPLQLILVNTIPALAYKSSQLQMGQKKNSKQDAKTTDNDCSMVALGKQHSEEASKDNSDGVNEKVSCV
# T2 sequence (P35367 whole entry): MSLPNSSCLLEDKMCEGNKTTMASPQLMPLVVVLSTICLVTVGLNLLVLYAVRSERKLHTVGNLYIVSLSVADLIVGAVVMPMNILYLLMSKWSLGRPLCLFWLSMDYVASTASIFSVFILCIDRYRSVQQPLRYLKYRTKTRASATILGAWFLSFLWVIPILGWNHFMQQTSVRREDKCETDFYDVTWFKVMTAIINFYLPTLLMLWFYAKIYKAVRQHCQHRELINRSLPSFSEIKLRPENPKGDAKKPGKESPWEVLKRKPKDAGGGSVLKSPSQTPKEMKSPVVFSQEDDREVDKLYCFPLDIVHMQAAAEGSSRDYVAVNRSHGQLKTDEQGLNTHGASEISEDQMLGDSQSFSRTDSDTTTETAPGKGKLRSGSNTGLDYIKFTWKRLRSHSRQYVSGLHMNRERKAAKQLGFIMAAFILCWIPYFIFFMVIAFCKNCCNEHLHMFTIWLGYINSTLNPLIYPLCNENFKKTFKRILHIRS
# T3 sequence (P50406 whole entry): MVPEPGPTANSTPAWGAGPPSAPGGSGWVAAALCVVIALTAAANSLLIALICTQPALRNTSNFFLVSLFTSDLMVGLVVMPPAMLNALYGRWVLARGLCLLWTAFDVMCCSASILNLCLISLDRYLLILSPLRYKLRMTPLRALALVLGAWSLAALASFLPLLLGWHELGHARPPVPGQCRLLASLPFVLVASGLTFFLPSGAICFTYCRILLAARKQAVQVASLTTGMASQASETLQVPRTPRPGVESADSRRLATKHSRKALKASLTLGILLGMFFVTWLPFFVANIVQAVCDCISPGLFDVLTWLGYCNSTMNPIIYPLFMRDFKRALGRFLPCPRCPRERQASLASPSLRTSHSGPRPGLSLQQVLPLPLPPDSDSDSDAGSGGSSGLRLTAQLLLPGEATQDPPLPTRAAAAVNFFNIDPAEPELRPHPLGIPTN
structure (smiles),measurement,setting,value
"Cc1ccc2c(c1)c1c(n2CCc2ccc(C)nc2)CC(=O)N(C)C1 [Compound 195, 1,2-dihydro-2,8-dimethyl-5-(2-(6-methylpyridin-3-yl)ethyl)-4H-pyrido[4,3-b]indol-3(5H)-one]","Inhibition of ligand binding, Adren. alpha2A",[1],4%
same,inhibition at 1 µM,[2]; [6],3%
same,"Inhibition of ligand binding, Ser. 5-HT6",[3],8%
same,"Inhibition of ligand binding, Ser. 5-HT2A",[4],−4%
same,"Inhibition of ligand binding, Adren. alpha1D",[5],15%
"Cc1ccc2c(c1)c1c(n2CCc2ccccc2)CC(O)N(C)C1=O (centres unmarked) [Compound 215, 3,4-dihydro-3-hydroxy-2,8-dimethyl-5-phenethyl-2H-pyrido[4,3-b]indol-1(5H)-one]","Inhibition of ligand binding, Adren. alpha2A",[1],23%
same,inhibition at 1 µM,[2]; [7],-2%
same,"Inhibition of ligand binding, Ser. 5-HT6",[3],8%
same,"Inhibition of ligand binding, Ser. 5-HT2A",[4],−6%
same,"Inhibition of ligand binding, Adren. alpha1D",[5],−5%
Cc1ccc2c(c1)c1c(n2CCc2ccc(C)nc2)CCN(C)C1=O [Compound 216],"Inhibition of ligand binding, Adren. alpha2A",[1],15%
same,inhibition at 1 µM,"[2]; read-out: Histamine Binding H1, percent inhibition of specific binding",6%
same,inhibition at 1 µM,[2]; [7],6%
same,"Inhibition of ligand binding, Ser. 5-HT6",[3],−8%
same,"Inhibition of ligand binding, Ser. 5-HT2A",[4],12%
same,"Inhibition of ligand binding, Adren. alpha1D",[5],−7%
"Cc1ccc2c(c1)c1c(n2CCN2CCCCC2)CCN(C)C1 [Compound 224, 2,3,4,5-tetrahydro-2,8-dimethyl-5-(2-(piperidin-1-yl)ethyl)-1H-pyrido[4,3-b]indole]","Inhibition of ligand binding, Adren. alpha2A",[1],57%
same,inhibition at 1 µM,[2]; [6],56%
same,"Inhibition of ligand binding, Ser. 5-HT6",[3],43%
same,"Inhibition of ligand binding, Ser. 5-HT2A",[4],32%
same,"Inhibition of ligand binding, Adren. alpha1D",[5],22%
"Cc1ccc(CCn2c3c(c4cc(Cl)ccc42)CN(C)CC3)cn1 [Compound 225, 8-chloro-2,3,4,5-tetrahydro-2-methyl-5-(2-(6-methylpyridin-3-yl)ethyl)-1H-pyrido[4,3-b]indole]","Inhibition of ligand binding, Adren. alpha2A",[1],91%
same,inhibition at 1 µM,[2]; [7],101%
same,"Inhibition of ligand binding, Ser. 5-HT6",[3],81%
same,"Inhibition of ligand binding, Ser. 5-HT2A",[4],92%
same,"Inhibition of ligand binding, Adren. alpha1D",[5],86%
"Cc1ccc2c(c1)c1c(n2CCc2ccccc2)CCN(C(=O)OCC(Cl)(Cl)Cl)C1 [Compound 227, 2,2,2-trichloroethyl 3,4-dihydro-8-methyl-5-phenethyl-1H-pyrido[4,3-b]indole-2(5H)-carboxylate]","Inhibition of ligand binding, Adren. alpha2A",[1],0%
same,inhibition at 1 µM,[2]; [6],-5%
same,"Inhibition of ligand binding, Ser. 5-HT6",[3],9%
same,"Inhibition of ligand binding, Ser. 5-HT2A",[4],−2%
same,"Inhibition of ligand binding, Adren. alpha1D",[5],11%
"Cc1ccc2c(c1)c1c(n2CCc2ccccc2)CCNC1 [Compound 228, 2,3,4,5-tetrahydro-8-methyl-5-phenethyl-1H-pyrido[4,3-b]indole]","Inhibition of ligand binding, Adren. alpha2A",[1],87%
same,inhibition at 1 µM,[2]; [6],81%
same,"Inhibition of ligand binding, Ser. 5-HT6",[3],89%
same,"Inhibition of ligand binding, Ser. 5-HT2A",[4],77%
same,"Inhibition of ligand binding, Adren. alpha1D",[5],76%
"Cc1ccc(CCn2c3c(c4cc(C(=O)O)ccc42)CN(C)CC3)cn1 [Compound 256, 2-Methyl-5-(2-(6-methylpyridin-3-yl)ethyl)-2,3,4,5-tetrahydro-1H-pyrido[4,3-b]indole-8-carboxylic acid]","Inhibition of ligand binding, Adren. alpha2A",[1],−7%
same,inhibition at 1 µM,[2]; [6],-1%
same,"Inhibition of ligand binding, Ser. 5-HT6",[3],2%
same,"Inhibition of ligand binding, Ser. 5-HT2A",[4],2%
same,"Inhibition of ligand binding, Adren. alpha1D",[5],−10%
Cc1ccc2c(c1)c1c(n2CCc2ccc(C(=O)O)nc2)CCNC1 [Compound 262],"Inhibition of ligand binding, Adren. alpha2A",[1],8%
same,inhibition at 1 µM,[2]; [6],81%
same,"Inhibition of ligand binding, Ser. 5-HT6",[3],−4%
same,"Inhibition of ligand binding, Ser. 5-HT2A",[4],6%
same,"Inhibition of ligand binding, Adren. alpha1D",[5],3%
Cc1ccc(CCn2c3c(c4cc(CO)ccc42)CN(C)CC3)cn1 [Compound 263],"Inhibition of ligand binding, Adren. alpha2A",[1],34%
same,inhibition at 1 µM,[2]; [6],95%
same,"Inhibition of ligand binding, Ser. 5-HT6",[3],31%
same,"Inhibition of ligand binding, Ser. 5-HT2A",[4],24%
same,"Inhibition of ligand binding, Adren. alpha1D",[5],39%
"CN1CCc2c(c3cc(Cl)cc(F)c3n2CCc2ccc(C(F)(F)F)nc2)C1 [Compound 338, 8-chloro-6-fluoro-5-(2-(6-(trifluoromethyl)pyridin-3-yl)ethyl)-2,3,4,5-tetrahydro-2-methyl-1H-pyrido[4,3-b]indole]","Inhibition of ligand binding, Adren. alpha2A",[1],99%
same,inhibition at 1 µM,[2]; [6],96%
same,"Inhibition of ligand binding, Ser. 5-HT6",[3],66%
same,"Inhibition of ligand binding, Ser. 5-HT2A",[4],94%
same,"Inhibition of ligand binding, Adren. alpha1D",[5],83%
"CN1CCc2c(c3cc(OC(F)(F)F)ccc3n2CCc2ccc(C(F)(F)F)nc2)C1 [Compound 341, 5-(2-(6-(trifluoromethyl)pyridin-3-yl)ethyl)-2,3,4,5-tetrahydro-2-methyl-8-(trifluoromethoxy)-1H-pyrido[4,3-b]indole]","Inhibition of ligand binding, Adren. alpha2A",[1],36%
same,inhibition at 1 µM,[2]; [6],28%
same,"Inhibition of ligand binding, Ser. 5-HT6",[3],17%
same,"Inhibition of ligand binding, Ser. 5-HT2A",[4],39%
same,"Inhibition of ligand binding, Adren. alpha1D",[5],−3%
"CC(C)c1ccc2c(c1)c1c(n2CCc2ccc(C(F)(F)F)nc2)CCN(C)C1 [Compound 342, 8-Isopropyl-2-methyl-5-[2-(6-trifluoromethyl-pyridin-3-yl)-ethyl]-2,3,4,5-tetrahydro-1H-pyrido[4,3-b]indole]","Inhibition of ligand binding, Adren. alpha2A",[1],94%
same,inhibition at 1 µM,[2]; [6],80%
same,"Inhibition of ligand binding, Ser. 5-HT6",[3],72%
same,"Inhibition of ligand binding, Ser. 5-HT2A",[4],74%
same,"Inhibition of ligand binding, Adren. alpha1D",[5],91%
CN1CCc2c(c3cc(Cl)c(F)cc3n2CCc2ccc(C(F)(F)F)nc2)C1 [Compound 343],"Inhibition of ligand binding, Adren. alpha2A",[1],90%
same,inhibition at 1 µM,[2]; [6],98%
same,"Inhibition of ligand binding, Ser. 5-HT6",[3],57%
same,"Inhibition of ligand binding, Ser. 5-HT2A",[4],89%
same,"Inhibition of ligand binding, Adren. alpha1D",[5],61%
